# Assay: Inhibition of TNFalpha in mouse L929 cells exposed to compound incubated for 1 hr with mouse TNFalpha by luminescence based assay
row,IC50 [nM],SMILES
1,146,C[C@@H]1CN(c2ncc(-c3ccc4c(c3)N(Cc3ccccc3OC(F)F)C(C)(C)C4=O)cn2)CCN1C(=O)CO
2,99,CC1(C)C(=O)c2ccc(-c3cnc(N4CCN5C(=O)NC[C@@H]5C4)nc3)cc2N1Cc1cccnc1C#N
3,119,C[C@@H]1CN(c2ncc(-c3ccc4c(c3)N(Cc3cccnc3C#N)C(C)(C)C4=O)cn2)CCN1C(=O)CO
4,128,CN1CCN(Cc2ccc(-c3c[nH]c4ccncc34)c(OCCc3ccc(-c4cccc5ccncc45)cc3)c2)CC1
